Measurements published in paper PMC6832265 (Molecules, 2019).

Columns and labels:
Tdp1 = biological target: T1, Tdp1 (Homo sapiens, UniProt Q9NUW8); assay: Real-time detection of Tdp1 activity (5'-FAM/3'-BHQ1 oligonucleotide biosensor); type: biochemical; details: 1.5 nM Tdp1, 50 nM oligonucleotide substrate, 26 °C
T1 construct: made in house; host or cells: Escherichia coli
Source text: We first studied the inhibition potency of our compounds to Tdp1 by using a real-time oligonucleotide biosensor assay that we have previously developed. The assay was based on the ability of Tdp1 to remove the fluorescence quencher from the 3’-end of DNA. The substrate is a 16-mer single-stranded oligonucleotide containing both a 5’-FAM fluorophore and a 3’-BHQ1 quencher.
A fluorophore quencher-coupled DNA-biosensor for real-time measurement of Tdp1 cleavage activity was recently designed in our laboratory. The biosensor is a 16-mer single-stranded oligonucleotide containing both a 5’-FAM fluorophore donor and a quenching 3’-BHQ1 moiety.
Recombinant protein Tdp1 was expressed in EsCherichia coli (pET 16B plasmid containing Tdp1 cDNA provided by Dr. K.W. Caldecott, University of Sussex, United Kingdom) and isolated as described. The reaction mixture in a final volume 200 μL contained Tdp1 reaction buffer (50 mM Tris-HCl, 50 mM NaCl, 7 mM β-mercaptoethanol), 50 nM oligonucleotide substrate, and varied concentrations of potential inhibitor. Purified Tdp1 was added in a final concentration of 1.5 nM.
The reaction mixtures were incubated at a constant temperature of 26 °C in a POLARstar OPTIMA fluorimeter, BMG LABTECH, GmbH, to measure fluorescence intensity every minute (Ex485/Em520 nm). Tdp1 inhibition was calculated by comparing the rate of increase in fluorescence of the biosensor in the presence of the compound to that of DMSO (1.5%) control wells. The measurements were carried out in at least two independent experiments. IC50 values were determined using a six-point concentration response curve. The data were imported into the MARS Data Analysis 2.0 program (BMG LABTECH) and the slope during the linear phase (data from 0 to 7 min) was calculated.

[1] = biological target: T2, recombinant Tdp1 (residues 149–608) (Homo sapiens, UniProt Q9NUW8); assay: Intrinsic tryptophan fluorescence quenching binding assay; details: 10 µM Tdp1, 20 mM Tris, 250 mM NaCl, pH 8; triplicate
T2 construct: recombinant Tdp1 (residues 149–608) was obtained from GenScript; host or cells: E. coli BL21(DE3)
T2 sequence (Q9NUW8 149-608): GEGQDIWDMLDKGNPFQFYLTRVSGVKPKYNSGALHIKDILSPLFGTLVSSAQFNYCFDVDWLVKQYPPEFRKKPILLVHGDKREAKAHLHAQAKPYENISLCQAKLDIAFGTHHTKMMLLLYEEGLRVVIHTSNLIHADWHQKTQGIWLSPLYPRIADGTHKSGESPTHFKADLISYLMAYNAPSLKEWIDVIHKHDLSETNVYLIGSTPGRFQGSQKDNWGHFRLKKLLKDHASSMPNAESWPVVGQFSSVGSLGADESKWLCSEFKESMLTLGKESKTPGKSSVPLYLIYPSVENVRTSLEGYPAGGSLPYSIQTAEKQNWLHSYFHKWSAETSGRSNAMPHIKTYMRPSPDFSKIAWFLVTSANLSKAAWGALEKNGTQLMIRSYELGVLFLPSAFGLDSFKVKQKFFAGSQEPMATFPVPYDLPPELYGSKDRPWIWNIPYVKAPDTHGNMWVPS
Description: The binding of the synthesized compounds to recombinant Tdp1 was also tested (Table 1 and Table 2) by using an intrinsic tryptophan fluorescence quenching assay. […] As our compounds are aromatic in nature, there is a possibility that they may bind to both the active site as well as non-specifically to the DNA/peptide binding pockets. Nonetheless, our results confirmed that the compounds were indeed binders of Tdp1, thus complementing our inhibition data.
pET-28a(+) plasmid encoding recombinant Tdp1 (residues 149–608) was obtained from GenScript. E. coli BL21(DE3) was used for recombinant protein production. Protein production was induced with 1 mM IPTG at 28 °C with overnight incubation. Tdp1 was purified using affinity and size exclusion chromatography. Fluorescence was measured using a PerkinElmer EnSpire Multimode Reader. Tdp1 concentration was 10 μM with varying compound concentrations. The buffer was 20 mM Tris and 250 mM NaCl (pH 8). The excitation wavelength was 280 nm and intrinsic fluorescence was measured at 350 nm. Control experiments with Tdp1 or the compound on its own were also conducted. Background fluorescence arising from the compounds was subtracted from the final spectrum. The total volume per well was 30 μL. The dissociation constant (KD) was calculated using Equation (1), which takes non-specific binding into account. y = Bmaxx/(KD + x) + Nsx(1) where y denotes the changes in fluorescence intensity; x denotes the concentration of the compounds; Bmax denotes the maximum changes in fluorescence intensity; and Ns is a scaling factor for non-specific binding. Experiments were conducted in triplicate.

T1 sequence (Q9NUW8 whole entry): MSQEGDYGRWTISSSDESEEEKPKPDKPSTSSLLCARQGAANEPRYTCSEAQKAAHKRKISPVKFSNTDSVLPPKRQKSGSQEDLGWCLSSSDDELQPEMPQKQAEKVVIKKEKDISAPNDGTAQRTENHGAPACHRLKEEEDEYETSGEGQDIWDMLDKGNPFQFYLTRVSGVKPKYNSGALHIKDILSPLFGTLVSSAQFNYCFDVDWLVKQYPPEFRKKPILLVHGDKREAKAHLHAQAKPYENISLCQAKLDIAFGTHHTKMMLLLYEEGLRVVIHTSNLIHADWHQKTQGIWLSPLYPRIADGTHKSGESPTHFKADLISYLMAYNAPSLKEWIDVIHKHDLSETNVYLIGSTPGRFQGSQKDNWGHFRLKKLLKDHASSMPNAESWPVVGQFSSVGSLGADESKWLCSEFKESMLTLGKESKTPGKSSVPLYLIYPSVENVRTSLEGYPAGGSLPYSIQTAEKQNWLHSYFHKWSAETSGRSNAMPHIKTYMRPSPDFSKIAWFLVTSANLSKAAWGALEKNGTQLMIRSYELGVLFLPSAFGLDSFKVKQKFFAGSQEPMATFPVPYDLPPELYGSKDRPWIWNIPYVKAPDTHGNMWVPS

IC50 (Tdp1) [µM]	Kd [1] [µM]	Molecule
0.07 ± 0.004	597 ± 98	CC(=O)C1=C(O)C=C2Oc3c(-c4csc(N/N=C/c5ccc([N+](=O)[O-])s5)n4)c(O)c(C)c(O)c3[C@@]2(C)C1=O [(+)-16d, (2R)-4-Acetyl-5,11,13-trihydroxy-2,12-dimethyl-10-{2-[(E)-2-[(5-nitrothiophen-2-yl)methylidene]hydrazin-1-yl]-1,3-thiazol-4-yl}-8-oxatricyclo[7.4.0.0^2,7]trideca-1(9),4,6,10,12-pentaen-3-one]
0.122 ± 0.025	223 ± 42	COc1ccc(/C=N/Nc2nc(-c3c(O)c(C)c(O)c4c3OC3=CC(O)=C(C(C)=O)C(=O)[C@@]34C)cs2)cc1CSc1cc(C)ccc1C(C)(C)C [(+)-17g, (2R)-4-Acetyl-10-{2-[(E)-2-[(3-{[(2-tert-butyl-5-methylphenyl)sulfanyl]methyl}-4-methoxyphenyl)methylidene]hydrazin-1-yl]-1,3-thiazol-4-yl}-5,11,13-trihydroxy-2,12-dimethyl-8-oxatricyclo[7.4.0.0^2,7]trideca-1(9),4,6,10,12-pentaen-3-one]
0.056 ± 0.004	355 ± 50	CC(=O)C1=C(O)C=C2Oc3c(-c4csc(N/N=C/c5cc(Br)cs5)n4)c(O)c(C)c(O)c3[C@]2(C)C1=O [(−)-16h, (2S)-4-Acetyl-5,11,13-trihydroxy-2,12-dimethyl-10-{2-[(E)-2-[(4-bromothiophen-2-yl)methylidene]hydrazin-1-yl]-1,3-thiazol-4-yl}-8-oxatricyclo[7.4.0.0^2,7]trideca-1(9),4,6,10,12-pentaen-3-one]
0.046 ± 0.005	142 ± 11	COc1ccc(/C=N/Nc2nc(-c3c(O)c(C)c(O)c4c3OC3=CC(O)=C(C(C)=O)C(=O)[C@]34C)cs2)cc1Cn1nc(C)c([N+](=O)[O-])c1C [(−)-17k, (2S)-4-Acetyl-10-{2-[(E)-2-({3-[(3,5-dimethyl-4-nitro-1H-pyrazol-1-yl)methyl]-4-methoxyphenyl}methylidene)hydrazin-1-yl]-1,3-thiazol-4-yl}-5,11,13-trihydroxy-2,12-dimethyl-8-oxatricyclo[7.4.0.0^2,7]trideca-1(9),4,6,10,12-pentaen-3-one]
0.169 ± 0.006	281 ± 25	CC(=O)C1=C(O)C=C2Oc3c(-c4csc(N/N=C/c5cccs5)n4)c(O)c(C)c(O)c3[C@]2(C)C1=O [(−)-16g, (2S)-4-Acetyl-5,11,13-trihydroxy-2,12-dimethyl-10-{2-[(E)-2-[(thiophen-2-yl)methylidene]hydrazin-1-yl]-1,3-thiazol-4-yl}-8-oxatricyclo[7.4.0.0^2,7]trideca-1(9),4,6,10,12-pentaen-3-one]
0.03 ± 0.011	130 ± 8	(2S)-4-Acetyl-10-{2-[(E)-2-({3-[(3,4-difluorophenoxy)methyl]-4-methoxyphenyl}methylidene)hydrazin-1-yl]-1,3-thiazol-4-yl}-5,11,13-trihydroxy-2,12-dimethyl-8-oxatricyclo[7.4.0.0^2,7]trideca-1(9),4,6,10,12-pentaen-3-one [(−)-17e]
0.041 ± 0.007	204 ± 23	COc1ccc(/C=N/Nc2nc(-c3c(O)c(C)c(O)c4c3OC3=CC(O)=C(C(C)=O)C(=O)[C@@]34C)cs2)cc1COc1ccccc1F [(+)-17c, (2R)-4-Acetyl-10-{2-[(E)-2-({3-[(2-fluorophenoxy)methyl]-4-methoxyphenyl}methylidene)hydrazin-1-yl]-1,3-thiazol-4-yl}-5,11,13-trihydroxy-2,12-dimethyl-8-oxatricyclo[7.4.0.0^2,7]trideca-1(9),4,6,10,12-pentaen-3-one]
0.018 ± 0.001	76 ± 5	COc1ccc(/C=N/Nc2nc(-c3c(O)c(C)c(O)c4c3OC3=CC(O)=C(C(C)=O)C(=O)[C@]34C)cs2)cc1COc1ccc(F)c(Cl)c1 [(−)-17d, (2S)-4-Acetyl-10-{2-[(E)-2-({3-[(3-chloro-4-fluorophenoxy)methyl]-4-methoxyphenyl}methylidene)hydrazin-1-yl]-1,3-thiazol-4-yl}-5,11,13-trihydroxy-2,12-dimethyl-8-oxatricyclo[7.4.0.0^2,7]trideca-1(9),4,6,10,12-pentaen-3-one]
0.018 ± 0.001	354 ± 40	CC(=O)C1=C(O)C=C2Oc3c(-c4csc(N/N=C/c5ccc[nH]5)n4)c(O)c(C)c(O)c3[C@]2(C)C1=O [(−)-16m, (2S)-4-Acetyl-5,11,13-trihydroxy-2,12-dimethyl-10-{2-[(E)-2-[(1H-pyrrol-2-yl)methylidene] hydrazin-1-yl]-1,3-thiazol-4-yl}-8-oxatricyclo[7.4.0.0^2,7]trideca-1(9),4,6,10,12-pentaen-3-one]
0.492 ± 0.088	77 ± 24	CC(=O)C1=C(O)C=C2Oc3c(-c4csc(N/N=C/c5ccccn5)n4)c(O)c(C)c(O)c3[C@@]2(C)C1=O [(+)-16b, 2-[(1E)-(2-{4-[(1R)-12-Acetyl-3,5,11-trihydroxy-1,4-dimethyl-13-oxo-8-oxatricyclo[7.4.0.0^2,7]trideca-2(7),3,5,9,11-pentaen-6-yl]-1,3-thiazol-2-yl}hydrazin-1-ylidene)methyl]pyridin-1-ium bromide]
0.107 ± 0.031	65 ± 7	(2R)-4-Acetyl-5,11,13-trihydroxy-2,12-dimethyl-10-{2-[(E)-2-[(thiophen-3-yl)methylidene] hydrazin-1-yl]-1,3-thiazol-4-yl}-8-oxatricyclo[7.4.0.0^2,7]trideca-1(9),4,6,10,12-pentaen-3-one amine [(+)-16j]
0.138 ± 0.003	268 ± 11	CC(=O)C1=C(O)C=C2Oc3c(-c4csc(N/N=C/c5c[nH]c6ccccc56)n4)c(O)c(C)c(O)c3[C@@]2(C)C1=O [(+)-16p, (2R)-4-Acetyl-5,11,13-trihydroxy-2,12-dimethyl-10-{2-[(E)-2-[(1H-indole-3-yl)methylidene] hydrazin-1-yl]-1,3-thiazol-4-yl}-8-oxatricyclo[7.4.0.0^2,7]trideca-1(9),4,6,10,12-pentaen-3-one]
0.04 ± 0.003	771 ± 46	(2S)-4-Acetyl-5,11,13-trihydroxy-2,12-dimethyl-10-{2-[(E)-2-[(thiophen-3-yl)methylidene] hydrazin-1-yl]-1,3-thiazol-4-yl}-8-oxatricyclo[7.4.0.0^2,7]trideca-1(9),4,6,10,12-pentaen-3-one amine [(−)-16j]
0.055 ± 0.008	113 ± 52	CC(=O)C1=C(O)C=C2Oc3c(-c4csc(N/N=C/c5ccc(-c6cccc(Cl)c6)o5)n4)c(O)c(C)c(O)c3[C@@]2(C)C1=O [(+)-16r, (2R)-4-Acetyl-10-{2-[(E)-2-{[5-(3-chlorophenyl)furan-2-yl]methylidene}hydrazin-1-yl]-1,3-thiazol-4-yl}-5,11,13-trihydroxy-2,12-dimethyl-8-oxatricyclo[7.4.0.0^2,7]trideca-1(9),4,6,10,12-pentaen-3-one]
0.151 ± 0.014	719 ± 17	CC(=O)C1=C(O)C=C2Oc3c(-c4csc(N/N=C/c5cccn5C)n4)c(O)c(C)c(O)c3[C@@]2(C)C1=O [(+)-16n, (2R)-4-Acetyl-5,11,13-trihydroxy-2,12-dimethyl-10-{2-[(E)-2-[(1-methyl-pyrrol-2-yl)methylidene]hydrazin-1-yl]-1,3-thiazol-4-yl}-8-oxatricyclo[7.4.0.0^2,7]trideca-1(9),4,6,10,12-pentaen-3-one]
0.077 ± 0.003	130 ± 29	COc1ccc(/C=N/Nc2nc(-c3c(O)c(C)c(O)c4c3OC3=CC(O)=C(C(C)=O)C(=O)[C@@]34C)cs2)cc1COc1ccc(F)c(Cl)c1 [(+)-17d, (2R)-4-Acetyl-10-{2-[(E)-2-({3-[(3-chloro-4-fluorophenoxy)methyl]-4-methoxyphenyl}methylidene)hydrazin-1-yl]-1,3-thiazol-4-yl}-5,11,13-trihydroxy-2,12-dimethyl-8-oxatricyclo[7.4.0.0^2,7]trideca-1(9),4,6,10,12-pentaen-3-one]
